This passage reports EC50 results from patent US20220363662A1, “COMPOUNDS AS LXR AGONISTS” (Integral Biosciences Privated Limited, priority 2021, published 2022).

SMILES strings stand for the structures.

This experiment has as its target T1, LXR beta (Homo sapiens, UniProt P55055).
T1 construct: 5 μL of 4×LXR beta-LBD was added to each well (final concentration 5 nM); purchased Thermofisher PV4658
T1 sequence (P55055 222-460 limits assumed): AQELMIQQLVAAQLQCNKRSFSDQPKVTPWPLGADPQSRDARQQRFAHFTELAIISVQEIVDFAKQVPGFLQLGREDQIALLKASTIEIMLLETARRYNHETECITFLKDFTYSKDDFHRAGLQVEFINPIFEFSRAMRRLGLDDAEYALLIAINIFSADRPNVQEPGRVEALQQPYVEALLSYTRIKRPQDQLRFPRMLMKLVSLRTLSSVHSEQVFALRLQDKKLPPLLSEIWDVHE
Briefly: LXR beta agonist assay (Lanthascreen TR-FRET). It counts as biochemical. The following applies: LXR beta-LBD 5 nM, read-out: LXR-β EC50. As for the experimental part: EC50 values of compounds against LXR beta were determined at Integral BioSciences (India) using Lanthascreen TR-FRET (Thermofisher, Cat #PV4658). Assay was performed in a 20 μL final volume in a Black 384-well plate (Corning, Cat #4511). Dose response curve for the compounds were prepared in duplicates with starting concentration at 30 μM and a three-fold titration was performed. The reaction buffer consisted of TR-FRET Coregulator Buffer G. To the compound dilution, 5 μL of 4×LXR beta-LBD was added to each well (final concentration 5 nM). An equal volume (5 μL) containing 4×Fl-D22/Tb-anti GST antibody (final concentration 100 nM/10 nM) was added to initiate the enzyme reaction and the reaction was incubated for 60 min at 22° C. after which the plates were read using BioTek Plate reader for TR-FRET every hour up to 4 hours.
Analysis was done using the standard curve by non-linear regression, variable slope inhibitor curve fits (Graph-Pad Prism) and EC50's of compounds were determined wherever possible.
In general, EC50 refers to the concentration needed to bring the measured effect to its halfway point. With `O=C(c1ccc(NC2CN(C3CCN(C(=O)C(O)(c4ccccc4)C(F)(F)F)CC3)C2)cc1Cl)N1CCCC1` (stereo not shown) [Compound 1.88, 1-(4-(3-(3-chloro-4-(pyrrolidine-1-carbonyl)phenylamino)azetidin-1-yl)piperidin-1-yl)-3,3,3-trifluoro-2-hydroxy-2-phenylpropan-1-one], the EC50 was above 30 µM.

As to `CN(C)C(=O)c1ccc(-c2nnc(N3CCN(S(=O)(=O)c4ccccc4Cl)CC3)s2)cc1F` [Compound 1.70, 4-(5-(4-(2-chlorophenylsulfonyl)piperazin-1-yl)-1,3,4-thiadiazol-2-yl)-2-fluoro-N,N-dimethylbenzamide], the EC50 was 9.77 µM. To `CCN(CC)C(=O)c1ccc(NC2CN(C3CCN(C(=O)[C@@](O)(c4ccccc4)C(F)(F)F)CC3)C2)cc1Cl` (single isomer, unassigned) [Compound 1.96] belongs 4.57 µM; to `Cc1cccc([C@](O)(C(=O)N2CCC(N3CC(Nc4ccc(C(=O)N(C)C)c(Cl)c4)C3)CC2)C(F)(F)F)c1` (single isomer, unassigned) [Compound 1.121], 2.85 µM; to `CN(C)C(=O)c1ccc(C2=CCN(C3CC4(C3)CN(C(=O)C(O)(c3ccccc3)C(F)(F)F)C4)CC2)cc1Cl` (stereo not shown) [Compound 1.127, 2-chloro-N,N-dimethyl-4-(1-(2-(3,3,3-trifluoro-2-hydroxy-2-phenylpropanoyl)-2-azaspiro[3.3]heptan-6-yl)-1,2,3,6-tetrahydropyridin-4-yl)benzamide], 3.95 µM.

Consider `CN(C)C(=O)c1ccc(NC2CN(C3CCN(C(=O)C4(c5ccc(F)cc5)CCCC4)CC3)C2)cc1Cl` [Compound 1.34, 2-chloro-4-(1-(1-(1-(4-fluorophenyl)cyclopentanecarbonyl)piperidin-4-yl)azetidin-3-ylamino)-N,N-dimethylbenzamide], for which the EC50 was found to be 3.41 µM. Next, `CN(C)C(=O)c1ccc(NC2CN(C3CCN(C(=O)[C@](O)(c4ccccc4)C(F)(F)F)CC3)C2)cc1F` (single isomer, unassigned) [Compound 1.86]: above 30 µM; `COc1ncc(Cl)cc1S(=O)(=O)N1CC=C(c2nnc(-c3ccc(C(=O)N(C)C)c(Cl)c3)s2)CC1` [Compound 1.62, 2-chloro-4-(5-(1-(5-chloro-2-methoxypyridin-3-ylsulfonyl)-1,2,3,6-tetrahydropyridin-4-yl)-1,3,4-thiadiazol-2-yl)-N,N-dimethylbenzamide]: above 10 µM; `CN(C)C(=O)c1ccc(C2CCN(C3CC4(C3)CN(C(=O)C(O)(c3ccccc3)C(F)(F)F)C4)CC2)cc1Cl` (stereo not shown) [Compound 1.80, 2-chloro-N,N-dimethyl-4-(1-(2-(3,3,3-trifluoro-2-hydroxy-2-phenylpropanoyl)-2-azaspiro[3.3]heptan-6-yl)piperidin-4-yl)benzamide]: 4.33 µM.

Consider `CN(C)C(=O)c1ccc(-c2nnc(C3CCN(S(=O)(=O)c4ccccc4Cl)CC3)s2)cc1Cl` [Compound 1.11, 2-chloro-4-(5-(1-(2-chlorophenylsulfonyl)piperidin-4-yl)-1,3,4-thiadiazol-2-yl)-N,N-dimethylbenzamide], for which the EC50 worked out at 3.09 µM. To `COCCCN(C)C(=O)c1ccc(N2CCN(C3CC4(C3)CN(C(=O)C(O)(c3ccccc3)C(F)(F)F)C4)CC2)cc1Cl` (stereo not shown) [Compound 1.119, 2-chloro-N-(3-methoxypropyl)-N-methyl-4-(4-(2-(3,3,3-trifluoro-2-hydroxy-2-phenylpropanoyl)-2-azaspiro[3.3]heptan-6-yl)piperazin-1-yl)benzamide] belongs 2.85 µM. As for `O=C(c1ccc(NC2CN(C3CCN(C(=O)C(O)(c4cccc(Cl)c4)C(F)(F)F)CC3)C2)cc1Cl)N1CCC(F)(F)CC1` (stereo not shown) [Compound 1.133, 1-(4-(3-((3-chloro-4-(4,4-difluoropiperidine-1-carbonyl)phenyl)amino)azetidin-1-yl)piperidin-1-yl)-2-(3-chlorophenyl)-3,3,3-trifluoro-2-hydroxypropan-1-one], the EC50 is 0.995 µM. To `O=C(c1ccc(NC2CN(C3CCN(C(=O)C(O)(c4ccccc4)C(F)(F)F)CC3)C2)cc1Cl)N1CCN(C(=O)C2CCC2)CC1` (stereo not shown) [Compound 1.102, 1-(4-(3-((3-chloro-4-(4-(cyclobutanecarbonyl)piperazine-1-carbonyl)phenyl)amino)azetidin-1-yl)piperidin-1-yl)-3,3,3-trifluoro-2-hydroxy-2-phenylpropan-1-one] belongs 3.18 µM; to `O=C(N1CCC(C2CCN(c3cc(Cl)c4c(=O)[nH]ccc4c3)CC2)CC1)C1(c2ccccc2)CCC1` [Compound 1.22, 8-chloro-6-(1′-(1-phenylcyclobutanecarbonyl)-[4,4′-bipiperidin]-1-yl)isoquinolin-1(2H)-one], 2.4 µM; to `CN(C)C(=O)c1ccc(NC2CN(C3CC4(C3)CN(C(=O)[C@](O)(c3ccccc3)C(F)(F)F)C4)C2)cc1Cl` [Compound 1.81, 2-chloro-N,N-dimethyl-4-(1-(2-((R)-3,3,3-trifluoro-2-hydroxy-2-phenylpropanoyl)-2-azaspiro[3.3]heptan-6-yl)azetidin-3-ylamino)benzamide], 4.22 µM. Next, `CN(C)C(=O)c1ccc(NC2CN(C3CCN(C(=O)[C@](O)(c4ccccc4)C(F)(F)F)CC3)C2)cc1Cl` (single isomer, unassigned) [Compound 1.9]: above 30 µM. To `CC1CN(c2nnc(-c3ccc(C(=O)N(C)C)c(Cl)c3)s2)CCN1S(=O)(=O)c1ccccc1Cl` (stereo not shown) [Compound 1.83, 2-chloro-4-(5-(4-(2-chlorophenylsulfonyl)-3-methylpiperazin-1-yl)-1,3,4-thiadiazol-2-yl)-N,N-dimethylbenzamide] belongs 8.46 µM. Turning to `CC(C)(C(=O)N1CCC(C2CCN(c3cc(Cl)c4c(=O)[nH]ccc4c3)CC2)CC1)c1ccccc1` [Compound 1.24, 8-chloro-6-(1′-(2-methyl-2-phenylpropanoyl)-4,4′-bipiperidin-1-yl)isoquinolin-1(2H)-one], the EC50 is 2.48 µM. On to `CN(C)C(=O)c1ccc(-c2nnc(C3=CCN(C(=O)C(C)(C)C)CC3)s2)cc1Cl` [Compound 1.59, 2-chloro-N,N-dimethyl-4-(5-(1-pivaloyl-1,2,3,6-tetrahydropyridin-4-yl)-1,3,4-thiadiazol-2-yl)benzamide], for which the EC50 amounted to 5.45 µM. To `CC(=O)N1CCN(C(=O)c2ccc(NC3CN(C4CCN(C(=O)C(O)(c5cccc(Cl)c5)C(F)(F)F)CC4)C3)cc2Cl)CC1` (stereo not shown) [Compound 1.134, 1-(4-(3-((4-(4-acetylpiperazine-1-carbonyl)-3-chlorophenyl)amino)azetidin-1-yl)piperidin-1-yl)-2-(3-chlorophenyl)-3,3,3-trifluoro-2-hydroxypropan-1-one] belongs 0.86 µM.

For the compound `CN(C)C(=O)c1c(Cl)cc(NC2CN(C3CCN(C(=O)[C@@](O)(c4ccccc4)C(F)(F)F)CC3)C2)cc1Cl` [Compound 1.123, (S)-2,6-dichloro-N,N-dimethyl-4-(1-(1-(3,3,3-trifluoro-2-hydroxy-2-phenylpropanoyl)piperidin-4-yl)azetidin-3-ylamino)benzamide], the EC50 was above 27 µM. Next, `O=C(NCC(F)F)c1ccc(NC2CN(C3CCN(C(=O)[C@@](O)(c4ccccc4)C(F)(F)F)CC3)C2)cc1Cl` (single isomer, unassigned) [Compound 1.107]: 1.3 µM. To `CN(CCCC(F)(F)F)C(=O)c1ccc(NC2CN(C3CCN(C(=O)[C@](O)(c4ccccc4)C(F)(F)F)CC3)C2)cc1Cl` [Compound 1.125, (R)-2-chloro-N-methyl-4-(1-(1-(3,3,3-trifluoro-2-hydroxy-2-phenylpropanoyl)piperidin-4-yl)azetidin-3-ylamino)-N-(4,4,4-trifluorobutyl)benzamide] belongs 3.98 µM. Consider `CN(C)C(=O)c1c(F)cc(N2CCN(C3CC4(C3)CN(C(=O)C(O)(c3ccccc3)C(F)(F)F)C4)CC2)cc1F` (stereo not shown) [Compound 1.126, 2,6-difluoro-N,N-dimethyl-4-(4-(2-(3,3,3-trifluoro-2-hydroxy-2-phenylpropanoyl)-2-azaspiro[3.3]heptan-6-yl)piperazin-1-yl)benzamide], for which the EC50 was 1.58 µM.

In the case of `CN(C)C(=O)c1ccc(N(C)C2CN(C3CCN(C(=O)C4(c5ccccc5)CCC4)CC3)C2)cc1Cl` [Compound 1.31, 2-chloro-N,N-dimethyl-4-(methyl(1-(1-(1-phenylcyclobutanecarbonyl)piperidin-4-yl)azetidin-3-yl)amino)benzamide], the EC50 is 3.23 µM. For the compound `O=C(NCC(F)F)c1ccc(NC2CN(C3CCN(C(=O)[C@](O)(c4ccccc4)C(F)(F)F)CC3)C2)cc1Cl` (single isomer, unassigned) [Compound 1.106], the EC50 is 2.71 µM.

On to `CN(C)C(=O)c1ccc(NC2CN(C3CCN(C(=O)[C@@](O)(c4ccc(F)cc4)C(F)(F)F)CC3)C2)cc1Cl` (single isomer, unassigned) [Compound 1.116], for which the EC50 amounted to 9.85 µM. With `O=C(c1ccc(NC2CN(C3CCN(C(=O)[C@@](O)(c4ccccc4)C(F)(F)F)CC3)C2)cc1Cl)N1CCCC1` (single isomer, unassigned) [Compound 1.99], the EC50 is 1.82 µM.
